Experimental data from paper PMC11923649, “Novel C-2 Aromatic Heterocycle-Substituted Triterpenoids Inhibit Hedgehog Signaling in GLI1 Overexpression Cancer Cells” (ACS Omega, 2025).

Legend:
MRC-5 lung fibroblasts = assay: MTS cytotoxicity assay, 72 h, MRC-5 fibroblasts; assay type: cell-based, human; conditions: Homo sapiens, MRC5, 72 h, normal fibroblasts
Outline: (§1)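 Seed cells; next day add compound (50–0.0975 μmol/L, 2-fold steps); incubate 72 h, 37 °C, 5% CO2; add MTS/PMS, 1–4 h; read A490; fit IC50.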

[1] = Microsomal stability, human liver microsomes with NADPH; assay type: in vitro ADME; conditions: for Category of Intrinsic clearence: calculated from microsomal stability, category per ref 39; for Microsomal stability % Compound remaining 15 min / Microsomal stability % Compound remaining 30 min / Microsomal stability % Compound remaining 60 min: human liver microsomes, NADPH
Procedure: Data from a plasma protein binding study can inform about distribution into tissues of the body and reduction in the amount of drug available to be metabolized or cleared from the body. The measurement of plasma protein binding was performed using a Rapid Equilibrium Dialysis device; 11a and 11b compounds reported a percent of fraction bound around 90%. For the microsomal stability assay, human liver microsomes and NADPH cofactor were used to assess phase I oxidation by cytochrome P450 and flavin monooxygenases. The intrinsic clearance calculated from the microsomal stability assay indicated the medium category for both derivatives (Table 3).

K562-TAX = assay: MTS cytotoxicity assay, 72 h, K562-TAX; assay type: cell-based
HCT116 p53–/– = assay: MTS cytotoxicity assay, 72 h, HCT116 p53–/–; assay type: cell-based; conditions: Homo sapiens, HCT-116, 72 h
Outline: as §1

[2] = Caco-2 permeability assay; assay type: in vitro ADME; conditions: human, Caco-2; for Papp A→B: cm/s, read-out: Caco-2 Papp (×10^−6)
From the text: (§2) The Parallel Artificial Membrane Permeability Assay (PAMPA) has emerged as a primary screen for determining passive transcellular permeability. […] The Caco-2 and MDCK-MDR1 permeability assays are established models of intestinal[37] and blood-brain barriers, respectively.[38]

MDR1 [3] = assay: Caco-2 permeability assay; assay type: in vitro ADME; conditions: human, Caco-2; B–A / A–B
From the text: as §2

Caco-2 monolayer = assay: Caco-2 permeability assay; assay type: in vitro ADME
From the text: as §2

[4] = MDCK-MDR1 permeability assay; assay type: in vitro ADME; conditions: dog, MDCK-MDR1; for Papp A→B: cm/s, read-out: MDCK-MDR1 Papp (×10^−6)
From the text: as §2

MDR1 [5] = assay: MDCK-MDR1 permeability assay; assay type: in vitro ADME; conditions: dog, MDCK-MDR1; B–A / A–B
From the text: as §2

MDCK-MDR1 monolayer = assay: MDCK-MDR1 permeability assay; assay type: in vitro ADME
From the text: as §2

SMILES	IC50 (MRC-5 lung fibroblasts; Table 1)	IC50 (MRC-5 lung fibroblasts; full Table S1)	Category of Intrinsic clearence [1]	Microsomal stability % Compound remaining 15 min [1]	Microsomal stability % Compound remaining 30 min [1]	Microsomal stability % Compound remaining 60 min [1]	IC50 (K562-TAX; Table 1)	IC50 (K562-TAX; full Table S1)	IC50 (HCT116 p53–/–; Table 1)	IC50 (HCT116 p53–/–; full Table S1)	recovery [2]	Papp A→B [2]	efflux ratio (MDR1 [3])	Caco-2 Active efflux (Caco-2 monolayer)	recovery [4]	Papp A→B [4]	efflux ratio (MDR1 [5])	MDCK-MDR1 Active efflux (MDCK-MDR1 monolayer)
C=C(C)[C@@H]1CC[C@]2(C(=O)O)CC[C@]3(C)C(CCC4[C@@]5(C)C=C(c6ccco6)C(=O)C(C)(C)C5CC[C@]43C)C12 (stereo partly drawn) [Compound 11a, 2-(Furan-2-yl)-3-oxolupa-1,20(29)-dien-28-oic acid]	27 µM	26.8 µM	Medium	88%	72%	52%	14 µM	13.7 µM	12 µM	12.4 µM	68.5%	0.44 ×10⁻⁶ cm/s	2.33	Yes	90.4%	9.15 ×10⁻⁶ cm/s	1.53	No (less than or very close to the limit of active and passive efflux (≤2))
C=C(C)[C@@H]1CC[C@]2(C(=O)O)CC[C@]3(C)C(CCC4[C@@]5(C)C=C(c6ccoc6)C(=O)C(C)(C)C5CC[C@]43C)C12 (stereo partly drawn) [Compound 11b, 2-(Furan-3-yl)-3-oxolupa-1,20(29)-dien-28-oic acid]	24 µM	23.9 µM	Medium	84%	69%	51%	16 µM	15.8 µM	14 µM	13.5 µM	58.2%	1.07 ×10⁻⁶ cm/s	1.77	No (less than or very close to the limit of active and passive efflux (≤2))	94.7%	1.85 ×10⁻⁶ cm/s	2.46	Yes
